Values of other authors, collected in PMC5560747, “Computational-experimental approach to drug-target interaction mapping: A case study on kinase inhibitors” (PLoS Computational Biology, 2017).

How the values were obtained:
Set-up in all cases: method as in Gao et al. [42]
FRK = molecular target: T1, FRK (Homo sapiens, UniProt P42685); conditions: ref Gao et al. [42], cited from earlier work
T1 construct: purchased SignalChem F14-11G-10

RPS6KB1 = molecular target: T2, RPS6KB1 (Homo sapiens, UniProt P23443); conditions: ref Gao et al. [42], cited from earlier work
T2 construct: purchased SignalChem R21-10H-10

RET = conditions: ref Gao et al. [42], cited from earlier work
PKCa = conditions: ref Gao et al. [42], cited from earlier work
FER = conditions: ref Gao et al. [42], cited from earlier work
STK17A = conditions: ref Gao et al. [42], cited from earlier work
HIPK2 = conditions: ref Gao et al. [42], cited from earlier work
RPS6KA5 = conditions: ref Gao et al. [42], cited from earlier work
TAOK1 = conditions: ref Gao et al. [42], cited from earlier work
PIM1 = conditions: ref Gao et al. [42], cited from earlier work
TSSK2 = conditions: ref Gao et al. [42], cited from earlier work
IKKb = conditions: ref Gao et al. [42], cited from earlier work
GSK3b = conditions: ref Gao et al. [42], cited from earlier work
LIMK1 = conditions: ref Gao et al. [42], cited from earlier work
MAPKAPK5 = conditions: ref Gao et al. [42], cited from earlier work
MAPK9 = conditions: ref Gao et al. [42], cited from earlier work
PLK3 = conditions: ref Gao et al. [42], cited from earlier work
ROCK1 = conditions: ref Gao et al. [42], cited from earlier work
ROCK2 = conditions: ref Gao et al. [42], cited from earlier work
IRAK4 = conditions: ref Gao et al. [42], cited from earlier work
CHUK = conditions: ref Gao et al. [42], cited from earlier work
ALK = conditions: ref Gao et al. [42], cited from earlier work
CHK1 = conditions: ref Gao et al. [42], cited from earlier work
FAK = FAK (Homo sapiens, UniProt Q05397); conditions: ref Gao et al. [42]; cited from earlier work
KIT = conditions: ref Gao et al. [42], cited from earlier work
JAK3 = JAK3 (Homo sapiens, UniProt P52333); conditions: ref Gao et al. [42], cited from earlier work
PLK1 = conditions: ref Gao et al. [42]; cited from earlier work
PHKG2 = conditions: ref Gao et al. [42], cited from earlier work
ERK6 = conditions: ref Gao et al. [42], cited from earlier work
AKT2 = conditions: ref Gao et al. [42], cited from earlier work
IRAK1 = conditions: ref Gao et al. [42], cited from earlier work
SGK1 = conditions: ref Gao et al. [42], cited from earlier work
CSNK1G3 = conditions: ref Gao et al. [42], cited from earlier work
AKT3 = conditions: ref Gao et al. [42], cited from earlier work

T1 sequence (P42685 whole entry): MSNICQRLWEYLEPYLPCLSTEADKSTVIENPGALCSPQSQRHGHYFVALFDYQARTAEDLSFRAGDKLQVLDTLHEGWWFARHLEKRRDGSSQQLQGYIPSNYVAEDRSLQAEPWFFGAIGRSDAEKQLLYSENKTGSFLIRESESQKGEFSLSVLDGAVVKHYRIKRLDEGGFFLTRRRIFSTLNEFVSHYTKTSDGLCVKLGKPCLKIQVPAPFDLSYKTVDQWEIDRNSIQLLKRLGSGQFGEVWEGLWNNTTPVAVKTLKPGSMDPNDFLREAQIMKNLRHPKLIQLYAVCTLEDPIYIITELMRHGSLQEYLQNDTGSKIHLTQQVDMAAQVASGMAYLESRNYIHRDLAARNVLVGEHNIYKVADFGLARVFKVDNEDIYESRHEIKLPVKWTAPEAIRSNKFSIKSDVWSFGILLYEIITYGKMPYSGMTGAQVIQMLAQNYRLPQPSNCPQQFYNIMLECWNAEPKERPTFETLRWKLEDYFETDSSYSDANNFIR
Chain of JAK3 (P52333 whole entry): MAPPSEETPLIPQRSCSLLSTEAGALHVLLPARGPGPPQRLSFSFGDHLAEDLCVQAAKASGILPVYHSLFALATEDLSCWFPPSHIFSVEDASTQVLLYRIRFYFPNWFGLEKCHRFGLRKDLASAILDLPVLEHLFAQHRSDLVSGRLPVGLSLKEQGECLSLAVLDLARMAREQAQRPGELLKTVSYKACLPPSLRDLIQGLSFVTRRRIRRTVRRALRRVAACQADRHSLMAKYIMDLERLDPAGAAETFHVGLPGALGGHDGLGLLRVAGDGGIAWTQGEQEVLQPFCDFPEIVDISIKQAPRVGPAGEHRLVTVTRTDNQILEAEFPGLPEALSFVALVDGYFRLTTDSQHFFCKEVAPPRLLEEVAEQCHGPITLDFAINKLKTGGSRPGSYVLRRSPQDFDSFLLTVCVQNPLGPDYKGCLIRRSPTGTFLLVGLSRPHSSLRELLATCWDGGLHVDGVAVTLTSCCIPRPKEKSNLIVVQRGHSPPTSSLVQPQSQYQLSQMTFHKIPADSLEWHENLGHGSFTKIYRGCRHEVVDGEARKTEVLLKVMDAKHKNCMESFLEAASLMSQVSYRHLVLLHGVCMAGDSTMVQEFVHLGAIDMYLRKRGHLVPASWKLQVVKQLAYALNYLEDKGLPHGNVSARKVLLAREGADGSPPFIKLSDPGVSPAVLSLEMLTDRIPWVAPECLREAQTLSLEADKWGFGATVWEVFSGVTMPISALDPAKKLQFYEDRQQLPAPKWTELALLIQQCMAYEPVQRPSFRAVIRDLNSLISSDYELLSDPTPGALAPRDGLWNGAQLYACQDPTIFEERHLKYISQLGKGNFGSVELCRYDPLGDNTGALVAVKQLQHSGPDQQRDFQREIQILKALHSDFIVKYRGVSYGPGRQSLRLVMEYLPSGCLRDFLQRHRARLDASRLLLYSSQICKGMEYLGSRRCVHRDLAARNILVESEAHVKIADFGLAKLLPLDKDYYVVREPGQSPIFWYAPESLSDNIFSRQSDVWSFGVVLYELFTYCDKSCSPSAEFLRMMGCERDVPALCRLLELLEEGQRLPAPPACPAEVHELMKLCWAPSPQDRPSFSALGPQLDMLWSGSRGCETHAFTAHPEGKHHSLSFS
T2 sequence (P23443 whole entry): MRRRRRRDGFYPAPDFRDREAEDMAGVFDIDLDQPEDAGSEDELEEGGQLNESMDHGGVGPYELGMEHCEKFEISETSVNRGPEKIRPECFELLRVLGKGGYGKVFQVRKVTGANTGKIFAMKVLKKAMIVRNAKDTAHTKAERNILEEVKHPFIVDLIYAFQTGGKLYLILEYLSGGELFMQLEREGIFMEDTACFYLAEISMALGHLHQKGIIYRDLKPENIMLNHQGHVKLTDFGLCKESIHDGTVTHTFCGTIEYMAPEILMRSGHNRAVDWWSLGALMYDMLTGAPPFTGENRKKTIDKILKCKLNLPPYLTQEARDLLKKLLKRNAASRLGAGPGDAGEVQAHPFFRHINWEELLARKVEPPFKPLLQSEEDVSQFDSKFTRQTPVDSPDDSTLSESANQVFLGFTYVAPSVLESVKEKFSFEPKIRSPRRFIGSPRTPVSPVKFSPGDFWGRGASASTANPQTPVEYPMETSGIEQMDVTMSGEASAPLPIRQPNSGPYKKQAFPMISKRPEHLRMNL
Chain of FAK (Q05397 whole entry): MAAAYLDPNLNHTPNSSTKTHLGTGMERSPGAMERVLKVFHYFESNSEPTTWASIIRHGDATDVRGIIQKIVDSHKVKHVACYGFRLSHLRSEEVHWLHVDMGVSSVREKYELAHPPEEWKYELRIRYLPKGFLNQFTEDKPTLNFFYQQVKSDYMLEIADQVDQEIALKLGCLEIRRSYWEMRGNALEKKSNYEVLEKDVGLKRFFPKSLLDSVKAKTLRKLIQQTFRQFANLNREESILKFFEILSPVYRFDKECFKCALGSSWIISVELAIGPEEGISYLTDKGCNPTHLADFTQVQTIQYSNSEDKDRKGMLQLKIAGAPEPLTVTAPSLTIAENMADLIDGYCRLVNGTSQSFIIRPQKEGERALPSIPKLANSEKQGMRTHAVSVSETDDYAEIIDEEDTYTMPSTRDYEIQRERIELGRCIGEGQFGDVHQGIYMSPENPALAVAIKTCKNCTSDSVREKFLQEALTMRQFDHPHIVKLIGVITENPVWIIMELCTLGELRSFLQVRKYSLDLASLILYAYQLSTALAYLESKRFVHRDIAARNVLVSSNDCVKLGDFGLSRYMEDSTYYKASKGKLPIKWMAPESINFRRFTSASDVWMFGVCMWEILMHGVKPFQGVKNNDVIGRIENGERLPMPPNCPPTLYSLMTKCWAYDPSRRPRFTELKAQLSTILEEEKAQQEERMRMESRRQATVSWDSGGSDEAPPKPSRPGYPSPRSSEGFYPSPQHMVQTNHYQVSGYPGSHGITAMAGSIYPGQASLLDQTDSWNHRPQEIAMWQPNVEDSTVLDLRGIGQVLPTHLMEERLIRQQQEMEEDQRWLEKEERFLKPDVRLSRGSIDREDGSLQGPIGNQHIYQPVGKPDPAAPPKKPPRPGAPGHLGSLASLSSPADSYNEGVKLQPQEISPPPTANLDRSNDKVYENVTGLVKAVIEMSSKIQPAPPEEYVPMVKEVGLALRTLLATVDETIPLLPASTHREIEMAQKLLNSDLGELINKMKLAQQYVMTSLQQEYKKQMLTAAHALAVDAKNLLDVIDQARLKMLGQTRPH

Compound: COc1cc2nccc(Oc3ccc(NC(=O)Nc4cc(C)on4)c(Cl)c3)c2cc1OC [TIVOZANIB, Tivozanib]
- Gao et al. % of activity remaining at 1 µM (FRK; 1 µM): 2%
- Gao et al. % of activity remaining at 10 µM (FRK; 10 µM): -3%
- Gao et al. % of activity remaining at 1 µM (RPS6KB1; 1 µM): 76%
- Gao et al. % of activity remaining at 10 µM (RPS6KB1; 10 µM): 53%
- Gao et al. % of activity remaining at 1 µM (RET; 1 µM): 0%
- Gao et al. % of activity remaining at 10 µM (RET; 10 µM): -1%
- Gao et al. % of activity remaining at 1 µM (PKCa; 1 µM): 108%
- Gao et al. % of activity remaining at 10 µM (PKCa; 10 µM): 101%
- Gao et al. % of activity remaining at 1 µM (FER; 1 µM): 87%
- Gao et al. % of activity remaining at 10 µM (FER; 10 µM): 16%
- Gao et al. % of activity remaining at 1 µM (STK17A; 1 µM): 116%
- Gao et al. % of activity remaining at 10 µM (STK17A; 10 µM): 87%
- Gao et al. % of activity remaining at 1 µM (HIPK2; 1 µM): 94%
- Gao et al. % of activity remaining at 10 µM (HIPK2; 10 µM): 81%
- Gao et al. % of activity remaining at 1 µM (RPS6KA5; 1 µM): 107%
- Gao et al. % of activity remaining at 10 µM (RPS6KA5; 10 µM): 80%
- Gao et al. % of activity remaining at 1 µM (TAOK1; 1 µM): 91%
- Gao et al. % of activity remaining at 10 µM (TAOK1; 10 µM): 52%
- Gao et al. % of activity remaining at 1 µM (PIM1; 1 µM): 95%
- Gao et al. % of activity remaining at 10 µM (PIM1; 10 µM): 86%
- Gao et al. % of activity remaining at 1 µM (TSSK2; 1 µM): 90%
- Gao et al. % of activity remaining at 10 µM (TSSK2; 10 µM): 78%
- Gao et al. % of activity remaining at 1 µM (IKKb; 1 µM): 104%
- Gao et al. % of activity remaining at 10 µM (IKKb; 10 µM): 102%
- Gao et al. % of activity remaining at 1 µM (GSK3b; 1 µM): 104%
- Gao et al. % of activity remaining at 10 µM (GSK3b; 10 µM): 94%
- Gao et al. % of activity remaining at 1 µM (LIMK1; 1 µM): 67%
- Gao et al. % of activity remaining at 10 µM (LIMK1; 10 µM): 14%
- Gao et al. % of activity remaining at 1 µM (MAPKAPK5; 1 µM): 99%
- Gao et al. % of activity remaining at 10 µM (MAPKAPK5; 10 µM): 70%
- Gao et al. % of activity remaining at 1 µM (MAPK9; 1 µM): 104%
- Gao et al. % of activity remaining at 10 µM (MAPK9; 10 µM): 88%
- Gao et al. % of activity remaining at 1 µM (PLK3; 1 µM): 85%
- Gao et al. % of activity remaining at 10 µM (PLK3; 10 µM): 87%
- Gao et al. % of activity remaining at 1 µM (ROCK1; 1 µM): 113%
- Gao et al. % of activity remaining at 10 µM (ROCK1; 10 µM): 112%
- Gao et al. % of activity remaining at 1 µM (ROCK2; 1 µM): 76%
- Gao et al. % of activity remaining at 10 µM (ROCK2; 10 µM): 51%
- Gao et al. % of activity remaining at 1 µM (IRAK4; 1 µM): 85%
- Gao et al. % of activity remaining at 10 µM (IRAK4; 10 µM): 47%
- Gao et al. % of activity remaining at 1 µM (CHUK; 1 µM): 91%
- Gao et al. % of activity remaining at 10 µM (CHUK; 10 µM): 114%
- Gao et al. % of activity remaining at 1 µM (ALK; 1 µM): 83%
- Gao et al. % of activity remaining at 10 µM (ALK; 10 µM): 38%
- Gao et al. % of activity remaining at 1 µM (CHK1; 1 µM): 89%
- Gao et al. % of activity remaining at 10 µM (CHK1; 10 µM): 100%
- Gao et al. % of activity remaining at 10 µM (FAK): 35%
- Gao et al. % of activity remaining at 1 µM (KIT; 1 µM): 3%
- Gao et al. % of activity remaining at 10 µM (KIT; 10 µM): 0%
- Gao et al. % of activity remaining at 1 µM (JAK3; 1 µM): 100%
- Gao et al. % of activity remaining at 10 µM (JAK3; 10 µM): 48%
- Gao et al. % of activity remaining at 10 µM (PLK1): 75%
- Gao et al. % of activity remaining at 1 µM (PHKG2; 1 µM): 95%
- Gao et al. % of activity remaining at 10 µM (PHKG2; 10 µM): 66%
- Gao et al. % of activity remaining at 1 µM (ERK6; 1 µM): 100%
- Gao et al. % of activity remaining at 10 µM (ERK6; 10 µM): 94%
- Gao et al. % of activity remaining at 1 µM (AKT2; 1 µM): 105%
- Gao et al. % of activity remaining at 10 µM (AKT2; 10 µM): 89%
- Gao et al. % of activity remaining at 1 µM (IRAK1; 1 µM): 82%
- Gao et al. % of activity remaining at 10 µM (IRAK1; 10 µM): 92%
- Gao et al. % of activity remaining at 1 µM (SGK1; 1 µM): 83%
- Gao et al. % of activity remaining at 10 µM (SGK1; 10 µM): 64%
- Gao et al. % of activity remaining at 1 µM (CSNK1G3; 1 µM): 104%
- Gao et al. % of activity remaining at 10 µM (CSNK1G3; 10 µM): 93%
- Gao et al. % of activity remaining at 1 µM (AKT3; 1 µM): 95%
- Gao et al. % of activity remaining at 10 µM (AKT3; 10 µM): 89%
